{"source": "patent US9713613B2", "about": "“Methods and compositions for the treatment of cancer and related hyperproliferative disorders” (priority 2007, dated 2017)", "key": {"ob/ob mice": {"tested_on": "ob/ob mice", "test": "GC-MS analyses of fatty acids in the livers of ob/ob mice", "type": "in vivo, mouse", "method": "Liver samples (100 mg) obtained from fatostatin A-treated ob/ob mice and non-treated control mice and stored at −80° C. until analyzed for fatty acid contents. The fatty acids were extracted according to Folch's protocol and quantitatively analyzed using gas chromatography-mass spectrometry (GC-SM). As shown in the above table, there is about 50% reduction of C14:0 and C16:0, the products of the de novo fatty acid synthesis, and about 70% reduction of monounsaturated fatty acids C16:1, C18:1 and C20:1 and their elongation-desaturation products (C18:2)N-6, (C18:3)N-6, (C20:2)N-6, (C20-3)N-6 and (C20:5)N-3. Myristate (C14:0) and palmitate (C16:0), the products of FAS, were reduced by about 50% (P<0.05). There was no change in C18 levels, which is derived not only from de novo fatty acid synthesis by FAS, but also from food and chain elongation system. […] Also, the levels of polyunsaturated long-chain fatty acids (18:2)N-6, (18:3)N-6, (20:2)N-6, (20:3)N-6 and (20:5)N-3 were reduced 30-60%. These reductions are the result of down regulation of key enzymes in the lipogenic pathways (FAS, ACC and SCD, ACL) at transcription and translation.\nFour- to 5-week old homozygous male obese (ob/ob) mice (C57BL/6J, The Jackson Laboratory, Bar Harbor, Me.) were housed under controlled conditions (12-hr light/dark cycle; 25° C.). The animals were housed 5 per cage and had ad libitum access to standard laboratory chow (Purina Mills, Richmond Ind.) and water for one week after their arrival. On first day of the experiment and every day thereafter the weight of the mice and the amount of the food consumed were measured. The weight of mice and food remaining were measured daily between 3-5 p.m. before the ip injection of fatostatin A (30 mg/kg; 150 μL). The administration of Fatostatin A or 10% DMSO in PBS to control groups (n=5) continued daily for four weeks till the end of the study."}, "SREBP-1": {"tested_on": "SREBP-1", "test": "Western blot of SREBP-1 processing in DU145 cells", "type": "cell-based, human", "details": "6 hrs, IGF1", "method": "To examine whether fatostatin A affects the proteolytic activation of SREBPs, whole cell lysates of DU145 cells treated with fatostatin A were analyzed by western blots with an antibody against the NH2 terminus of SREBP-1 (FIG. 3A). […] Similar results were obtained for SREBP-2 with an antibody against its COOH terminus (FIG. 3B).\nDU145 prostate cancer cells were seeded on a 6-well plate at a density of 2×10^5 cells/well in a serum-free MEM incubated at 37° C. for overnight. The cells were then treated with DMSO or fatostatin A ([…]) in presence of IGF1 (1 μg/mL). After 6 hrs of incubation, the cells were harvested in PBS and lysated in an SDS buffer. The samples were separated on a 10% SDS-PAGE gel and blotted by using rabbit anti-SREBP-1 and anti-SREBP-2 antibodies. The specific bands were visualized by using enhanced chemiluminescent (ECL) detection reagents (Amersham)."}, "MOLT-4 cells": {"tested_on": "MOLT-4 cells", "test": "MOLT-4 cell growth, MTT assay", "type": "cell-based, human", "details": "48 hours", "method": "10,000 MOLT-4 cells (FIGS. 35A-35C) and 20,000 RPM18226 cells (FIGS. 35D-35F) were seeded onto 96 well plate in RPMI 1640 medium containing 5% FBS or fat-free charcoal treated serum (FF-FBS) for 24 hours at 37 C. MOLT-4 and RPM18226 cells were treated for additional 48 hours with different concentrations of compound 19 (None control without DMSO, Vehicle with DMSO, 1, 2, 5, 10 and 20 μM in DMSO; RPM18226 cells also were treated with 3 μM in DMSO). At the end of 48 hours cells were subjected to MTT assay to determine viability. Values are depicted as means±SD; *P<0.05.\n20,000 MOLT-4 cells (FIGS. 36A-36C) and 20,000 RPM18226 cells (FIGS. 36D-36F) cells were seeded onto 96 well plates in RPMI 1640 Medium containing 5% Fetal bovine serum (FBS) or 5% fat free charcoal treated serum (FF-FBS) for 24 hours at 37 C. Cells then were treated for additional 48 hours with different concentrations of compound 17 (None control without DMSO, Vehicle with DMSO, 1, 2, 3, 5, 10 and 20 μM in DMSO). At the end of the 48 hours treatment cells were subjected to MTT assay to determine viability. Values are depicted as means±SD (n=3); **P<0.001; ***P<0.0001.\nMOLT-4 cells were grown at two different conditions under 5% fetal bovine serum (FBS) and under 5% FBS fat free serum (charcoal treated serum). 10,000 Cells were seeded a 96 well plate for 24 hours before starting the treatment with different concentrations of compound 19. Compound 19 dissolved in DMSO was added to cells for 48 hours before determining cell growth using MTT assay. […] Compound 19 inhibited cell growth about 75-80% at 10 and 20 μM under both growth conditions.\nMOLT-4 cells were grown at two different conditions under 5% fetal bovine serum (FBS) and under 5% FBS fat free serum (charcoal treated serum). 20,000 cells were seeded into a 96 well plate for 24 hours before starting the treatment with different concentrations of compound 17. Compound 17 dissolved in DMSO was added to cells for 48 hours before determining cell growth using MTT assay. […] Compound 17 inhibited cell growth about 85-100% at 5, 10 and 20 μM under both growth conditions. Under both 5% FBS and 5% FBS fat free sera there was a strong trend of inhibition starting at 1 μM (FIGS. 36B-36C)."}}}
{"smiles": "CCCc1cc(-c2nc(-c3ccc(C)cc3)cs2)ccn1", "note": "[Compound 1, 2-propyl-4-(4-p-tolylthiazol-2-yl)pyridine]", "values": [{"measurement": "Fatty Acid (14:0) Ratio treated:control", "setting": "ob/ob mice; ob/ob mice liver", "value": 0.5148}, {"measurement": "Fatty Acid (16:0) Ratio treated:control", "setting": "ob/ob mice; ob/ob mice liver", "value": 0.4367}, {"measurement": "Fatty Acid (16:1) Ratio treated:control", "setting": "ob/ob mice; ob/ob mice liver", "value": 0.3285}, {"measurement": "Fatty Acid (18:0) Ratio treated:control", "setting": "ob/ob mice; ob/ob mice liver", "value": 1.066}, {"measurement": "Fatty Acid (18:1) Ratio treated:control", "setting": "ob/ob mice; ob/ob mice liver", "value": 0.2922}, {"measurement": "Fatty Acid (18:2)N-6 Ratio treated:control", "setting": "ob/ob mice; ob/ob mice liver", "value": 0.638}, {"measurement": "Fatty Acid (18:3)N-3 Ratio treated:control", "setting": "ob/ob mice; ob/ob mice liver", "value": 1.218}, {"measurement": "Fatty Acid (18:3)N-6 Ratio treated:control", "setting": "ob/ob mice; ob/ob mice liver", "value": 0.4232}, {"measurement": "Fatty Acid (20:0) Ratio treated:control", "setting": "ob/ob mice; ob/ob mice liver", "value": 0.8517}, {"measurement": "Fatty Acid (20:1) Ratio treated:control", "setting": "ob/ob mice; ob/ob mice liver", "value": 0.3245}, {"measurement": "Fatty Acid (20:2)N-6 Ratio treated:control", "setting": "ob/ob mice; ob/ob mice liver", "value": 0.4668}, {"measurement": "Fatty Acid (20:3)N-6 Ratio treated:control", "setting": "ob/ob mice; ob/ob mice liver", "value": 0.6297}, {"measurement": "Fatty Acid (20:4)N-6 Ratio treated:control", "setting": "ob/ob mice; ob/ob mice liver", "value": 1.125}, {"measurement": "Fatty Acid (20:5)N-3 Ratio treated:control", "setting": "ob/ob mice; ob/ob mice liver", "value": 0.6994}, {"measurement": "Fatty Acid (22:0) Ratio treated:control", "setting": "ob/ob mice; ob/ob mice liver", "value": 1.266}, {"measurement": "Fatty Acid (22:1) Ratio treated:control", "setting": "ob/ob mice; ob/ob mice liver", "value": 0.871}, {"measurement": "Fatty Acid (22:4)N-6 Ratio treated:control", "setting": "ob/ob mice; ob/ob mice liver", "value": 0.959}, {"measurement": "Fatty Acid (22:5)N-3 Ratio treated:control", "setting": "ob/ob mice; ob/ob mice liver", "value": 0.7357}, {"measurement": "Fatty Acid (22:5)N-6 Ratio treated:control", "setting": "ob/ob mice; ob/ob mice liver", "value": 1.18}, {"measurement": "Fatty Acid (22:6)N-3 Ratio treated:control", "setting": "ob/ob mice; ob/ob mice liver", "value": 1.058}, {"measurement": "Fatty Acid (24:0) Ratio treated:control", "setting": "ob/ob mice; ob/ob mice liver", "value": 1.308}, {"measurement": "Fatty Acid (24:1) Ratio treated:control", "setting": "ob/ob mice; ob/ob mice liver", "value": 1.699}, {"measurement": "Fatty Acid (16:0) in liver", "setting": "ob/ob mice; treated ob/ob mice", "value": "37100 ± 3660", "unit": "nmol/g liver"}, {"measurement": "Fatty Acid (16:1) in liver", "setting": "ob/ob mice; treated ob/ob mice", "value": "11400 ± 228", "unit": "nmol/g liver"}, {"measurement": "Fatty Acid (18:0) in liver", "setting": "ob/ob mice; treated ob/ob mice", "value": "15100 ± 916", "unit": "nmol/g liver"}, {"measurement": "Fatty Acid (18:1) in liver", "setting": "ob/ob mice; treated ob/ob mice", "value": "44500 ± 8840", "unit": "nmol/g liver"}, {"measurement": "Fatty Acid (18:2)N-6 in liver", "setting": "ob/ob mice; treated ob/ob mice", "value": "29700 ± 2460", "unit": "nmol/g liver"}, {"measurement": "Fatty Acid (20:0) in liver", "setting": "ob/ob mice; treated ob/ob mice", "value": "164 ± 22.9", "unit": "nmol/g liver"}, {"measurement": "Fatty Acid (22:0) in liver", "setting": "ob/ob mice; treated ob/ob mice", "value": "116 ± 26", "unit": "nmol/g liver"}, {"measurement": "Fatty Acid (24:0) in liver", "setting": "ob/ob mice; treated ob/ob mice", "value": "158 ± 7.02", "unit": "nmol/g liver"}, {"measurement": "increase in C24:0 in livers", "setting": "ob/ob mice; vs untreated control mice", "value": 30, "unit": "%"}, {"measurement": "lowering of C20:0 in livers", "setting": "ob/ob mice; vs untreated control mice", "value": "about 15%"}, {"measurement": "reduction of (18:2)N-6, (18:3)N-6, (20:2)N-6, (20:3)N-6 and (20:5)N-3 in livers", "setting": "ob/ob mice; vs untreated control mice", "value": "30-60%"}, {"measurement": "reduction of (C18:2)N-6, (C18:3)N-6, (C20:2)N-6, and (C20-3)N-6 in livers", "setting": "ob/ob mice; vs untreated control mice", "value": "about 50%"}, {"measurement": "reduction of C14:0 and C16:0 in livers", "setting": "ob/ob mice; vs untreated control mice", "value": "about 50%"}, {"measurement": "reduction of monounsaturated fatty acids C16:1, C18:1 and C20:1 in livers", "setting": "ob/ob mice; vs untreated control mice", "value": "about 70%"}, {"measurement": "amounts of mature and precursor forms of SREBP-1 (western blot)", "setting": "SREBP-1", "value": "decreased the amounts of the 68 KDa mature form of SREBP-1 in a dose-dependent manner"}]}
{"smiles": "CCCc1cc(-c2nc(-c3ccc(NS(C)(=O)=O)cc3)cs2)ccn1", "note": "[Compound 19, N-(4-(2-(2-propylpyridin-4-yl)thiazol-4-yl)phenyl)methanesulfonamide]", "values": [{"measurement": "growth inhibition", "setting": "MOLT-4 cells; 2 and 5 μM, FBS fat free serum", "value": "30-50%"}, {"measurement": "inhibition of cell growth", "setting": "MOLT-4 cells; 10 and 20 μM, 5% FBS and 5% FBS fat free", "value": "75-80%"}]}
